{"source": "patent EP0192327A2", "about": "“Use of phosphonoformic acid and its esters and salts for the manufacture of a medicament for the treatment of AIDS” (THE WELLCOME FOUNDATION LIMITED, priority 1985, dated 1986)", "key": {"HTLV-III": {"tested_on": "HTLV-III", "assay": "Antiviral activity: protection of target T cells against the cytopathic effects of HTLV-III", "format": "cell-based", "details": "Human immunodeficiency virus 1, T-cell; target T cells infected with HTLV-III; protection at 10µM and above; read-out: concentrations found to protect target T cells against the cytopathic effects of HTLV-III", "description": "The compound of formula (1) in which R^1, R^2 and R^3 each represent a hydrogen atom was tested and found to protect target T cells against the cytopathic effects of HTLV-III at concentrations of 10µM and above."}, "[1]": {"assay": "Toxicity: cytotoxicity in FE-10 cells", "format": "cell-based", "details": "FE-10 (mouse modified 3T3) cells, no cytotoxicity up to 100µM, read-out: concentrations at which no cytotoxicity was observed"}}}
{"smiles": "O=C(O)P(=O)(O)O", "note": "[phosphonoformic acid]", "values": [{"measurement": "minimal effective concentration", "setting": "HTLV-III", "result": "≥ 10", "unit": "µM"}, {"measurement": "MNTC", "setting": "[1]", "result": "≥ 100", "unit": "µM"}]}
